Among the test systems are BT-549 breast; SR leukemia; HL-60(TB) leukemia; EKVX NSCLC; 786-0 renal; SF-295 CNS; HCT-15 colon; CCRF-CEM leukemia; A549 NSCLC; MOLT-4 leukemia.
Assay in all cases: NCI-60 cell line screen, 48 h

Several values for one entry are separate records, joined by “and”; a condition that tells them apart may be missing. Equal values may be shown once.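 Grown in 96-well plates, cells were treated for 48 hours with each compound at five concentrations. Insufficient inhibition: endpoint recorded as highest concentration tested. Abbreviation: GI50, concentration required for 50% inhibition of growth. TGI denotes the concentration required for complete inhibition of growth.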

As to `CC(C)c1ccc2c(c1)CCC1C2CCCC1(C)NCc1ccccc1` (configuration not stated), the GI50 is 8.42 µM with BT-549 breast; 1.8 µM in the test with SR leukemia; 2.34 µM in the test on HL-60(TB) leukemia; 10.7 µM with EKVX NSCLC; 2.43 µM with 786-0 renal; 2.17 µM with SF-295 CNS. Besides, the GI50 with HCT-15 colon is 2.87 µM; in the test on CCRF-CEM leukemia it was 5.32 µM; in the test with A549 NSCLC it was 15.5 µM; in the test with MOLT-4 leukemia it was 3.25 µM. The TGI in the test on BT-549 breast worked out at 20.8 µM; with SR leukemia, 6.3 µM; with HL-60(TB) leukemia, 6.85 µM; with EKVX NSCLC, 24.6 µM; with 786-0 renal it was 5.61 µM; with SF-295 CNS, 6.17 µM. Moreover, the TGI came out at 9.05 µM in the test with HCT-15 colon, 27.9 µM with CCRF-CEM leukemia, 31.1 µM in the test on A549 NSCLC and 12.1 µM with MOLT-4 leukemia.

For `C=C(C)c1nc(Oc2ccccc2)nc(Oc2ccccc2)n1`, the TGI is 13.1 µM in the test with BT-549 breast; more than 25.1 µM in the test on SR leukemia; 4.51 µM in the test on HL-60(TB) leukemia; 32.8 µM in the test on EKVX NSCLC; 15 µM in the test with 786-0 renal; 29.8 µM in the test on SF-295 CNS. Further, the TGI is 7.43 µM in the test with HCT-15 colon, 9.25 µM in the test on CCRF-CEM leukemia, 38.8 µM in the test with A549 NSCLC and 1.69 µM with MOLT-4 leukemia.

As to `CCCCCCCCCCCCOC1C(C(COC2OC(C(O)CO)C3OC(C)(C)OC23)OC(=O)Nc2ccccc2)OC2OC(C)(C)OC21` (configuration not stated), the GI50 was 10.5 µM in the test on BT-549 breast; less than 0.0212 µM in the test with SR leukemia; 0.484 µM with HL-60(TB) leukemia; 9.94 µM with EKVX NSCLC; 5.84 µM in the test with 786-0 renal; 5.47 µM in the test on SF-295 CNS. In addition, the GI50 with HCT-15 colon is 4.5 µM; in the test with A549 NSCLC, 6.08 µM; in the test with MOLT-4 leukemia it was 0.127 µM. The TGI is 23.8 µM in the test on BT-549 breast; 1.6 µM with HL-60(TB) leukemia; 22.2 µM in the test on EKVX NSCLC; 17.2 µM with 786-0 renal; 17.7 µM in the test on SF-295 CNS; 16.1 µM with HCT-15 colon. Also, the values for the TGI with CCRF-CEM leukemia, with A549 NSCLC and in the test with MOLT-4 leukemia were 6.66 µM, 20.6 µM and 5.14 µM, respectively.

Take `O=C(O)CSc1cc(NS(=O)(=O)c2ccc(Br)cc2)c2ccccc2c1O`: the GI50 with BT-549 breast was 16.2 µM; with SR leukemia, 17.8 µM; with HL-60(TB) leukemia it was 3.05 µM; with EKVX NSCLC it was 13.8 µM; with 786-0 renal, 19.9 µM; in the test with SF-295 CNS it was 16 µM. Further, the GI50 is 13.3 µM in the test with HCT-15 colon, 4.37 µM with CCRF-CEM leukemia, 22.8 µM in the test on A549 NSCLC and 3.08 µM in the test with MOLT-4 leukemia. The TGI in the test with BT-549 breast was 30.5 µM; in the test on SR leukemia, more than 68.1 µM; in the test with HL-60(TB) leukemia, more than 26.8 µM; in the test with EKVX NSCLC, 32.8 µM; in the test on 786-0 renal, 38.3 µM; with SF-295 CNS it was 30.1 µM. The TGI in the test with HCT-15 colon was 30.7 µM; in the test on CCRF-CEM leukemia it was more than 44.8 µM; with A549 NSCLC it was 42.6 µM; with MOLT-4 leukemia, more than 23.3 µM.

Regarding `O=C1NC(=O)C2C3C=CC(C12)C1C2C(=O)NC(=O)C2C31` (configuration not stated), the GI50 is 313 µM in the test on BT-549 breast; 68.9 µM and 108 µM in the test on SR leukemia; 543 µM in the test on EKVX NSCLC; more than 250 µM in the test on 786-0 renal; 827 µM in the test on SF-295 CNS; > 43.6 µM and 646 µM with HCT-15 colon. Also, the GI50 in the test on CCRF-CEM leukemia was 237 µM; in the test with A549 NSCLC, 172 µM; with MOLT-4 leukemia it was 160 µM. The TGI in the test with BT-549 breast is more than 1000 µM; with SR leukemia, 250 µM and > 871 µM; in the test on HL-60(TB) leukemia it was 206 µM and > 1000 µM; in the test with EKVX NSCLC, 250 µM and > 1000 µM; in the test on 786-0 renal, more than 1000 µM; with SF-295 CNS it was 199 µM and > 1000 µM. For the same molecule, the TGI with HCT-15 colon is > 61 µM and 250 µM and > 1000 µM; with CCRF-CEM leukemia it was 250 µM and > 1000 µM; in the test on A549 NSCLC, 250 µM and > 1000 µM; in the test with MOLT-4 leukemia it was 201 µM and 850 µM.

`COc1cc2c3c(n(CCCN)c(=O)c2cc1OC)-c1ccc(N)cc1C3=O`: the GI50 with BT-549 breast was 1.97 µM; in the test with SR leukemia it was 0.152 µM; in the test with HL-60(TB) leukemia, 0.461 µM; in the test on EKVX NSCLC it was 9.15 µM; with 786-0 renal, 1.91 µM; in the test with SF-295 CNS it was 3.75 µM. Moreover, the GI50 in the test with HCT-15 colon was 24.4 µM; in the test with CCRF-CEM leukemia, 0.389 µM; in the test on A549 NSCLC, 12.9 µM; in the test with MOLT-4 leukemia, 0.527 µM. Further, the TGI is 8.85 µM with BT-549 breast; 1.45 µM with SR leukemia; 4.91 µM in the test with HL-60(TB) leukemia; more than 30.9 µM in the test with EKVX NSCLC; 5.04 µM in the test on 786-0 renal; 37.3 µM in the test on SF-295 CNS. In addition, the TGI in the test with HCT-15 colon is more than 100 µM; in the test with CCRF-CEM leukemia, 7.28 µM; with A549 NSCLC, 44.3 µM; in the test on MOLT-4 leukemia, 4.7 µM.

Regarding `N#CC1=C(N)Oc2c(ccc3ccccc23)C1c1cc2ccccc2n2nnnc12` (configuration not stated), the GI50 in the test on BT-549 breast was 1.61 µM; with SR leukemia, 0.232 µM; with HL-60(TB) leukemia it was 0.26 µM; in the test on EKVX NSCLC it was 5.8 µM; with 786-0 renal, 1.28 µM; with SF-295 CNS it was 0.832 µM. In addition, the GI50 in the test on HCT-15 colon is 0.524 µM; in the test on CCRF-CEM leukemia, 0.739 µM; in the test with A549 NSCLC it was 3.02 µM; with MOLT-4 leukemia, 0.557 µM. Besides, the TGI in the test on BT-549 breast is more than 100 µM; in the test on SR leukemia it was more than 100 µM; in the test with HL-60(TB) leukemia, 16.7 µM; in the test with EKVX NSCLC, more than 100 µM; in the test with 786-0 renal, more than 100 µM; in the test with SF-295 CNS it was more than 100 µM. Moreover, the TGI in the test on HCT-15 colon, with CCRF-CEM leukemia, in the test with A549 NSCLC and in the test on MOLT-4 leukemia was more than 100 µM each time.

As to `OC[C@H]1C[C@](O)(c2ccc(F)cc2)[C@@H](c2ccc(F)cc2)O1`, the GI50 in the test with BT-549 breast, in the test with SR leukemia, in the test with HL-60(TB) leukemia, in the test on EKVX NSCLC, with 786-0 renal and in the test with SF-295 CNS was more than 100 µM in each case. Besides, the GI50 with HCT-15 colon, in the test on CCRF-CEM leukemia, with A549 NSCLC and in the test with MOLT-4 leukemia was more than 100 µM in each case. The TGI in the test on BT-549 breast, in the test on SR leukemia, in the test with HL-60(TB) leukemia, in the test on EKVX NSCLC, in the test on 786-0 renal and in the test on SF-295 CNS was more than 100 µM each time. The TGI in the test with HCT-15 colon, with CCRF-CEM leukemia, with A549 NSCLC and in the test with MOLT-4 leukemia was more than 100 µM each time.

Source of the values: PubChem BioAssay (NCI).
